Tests used:
Experiment in all cases: Cell growth inhibition assay (Cell Titer Glo)
Type in all cases: cell-based, human
MDAMB436 = details: MDAMB436, Basal B, 72 h
Procedure: (§1) Cell culture: Breast cell lines were obtained from the ATCC and from collections developed in the laboratories of Drs. Steve Ethier and Adi Gazdar.
(§2) Cell growth inhibition assay and data analysis: Cells were plated at proper density in 96-well plates such that they would remain in log growth at the end of assay time. The cells were allowed to attach overnight before being exposed to CGC-11047 for 72 h. Drugs were dissolved in water as 100 mM stock. For the dose response study, a set of 9 doses from 5×10^−3 to 1.3×10^−8 M (final concentration) in 1:5 serial dilution were added in triplicate wells. The final DMSO concentration in the treated well was 0.3% or less. The cell growth was determined using Cell Titer Glo (CTG) assay (CellTiter-Glo Luminescent Cell Viability Assay, Promega, Madison, Wis.), with slight modification form manufacturer's protocol, at day 0 (time when drug was added) and at day 3 of drug exposure. Briefly, CTG reagent was diluted with PBS (1:1, volume: volume) and the culture media was removed from the 96-well plate prior to adding 50 μl per well of the diluted CTG reagent. Luminescence from the assay was recorded using BIO-TEK FLx800.
(§3) Data calculations were made according to the method described by the NCI/NIH DTP Human Tumor Cell Line Screen Process (http://dtp.nci.nih.gov/branches/btb/ivclsp.html) and as described previously (Monks, A et al., JNCI 83:757-766, 1991). The percent growth curve is calculated as [(T−T0)/(C−T0)]×100, where T0 is the cell count at day 0, C is the vehicle control (e.g. 0.3% DMSO without drug) cell count at day 3, and T is the cell count at the test concentration. The GI50 and TGI value are determined as the drug concentration that results in a 50% and 0% growth at 72 h drug exposure. LC50 is calculated as [(T−T0)/T0]×100=−50, when T<T0.

T47D = details: Luminal, 72 h
Procedure: as §1, §2, §3

HCC1143 = details: HCC1143, Basal A, 72 h
Procedure: as §1, §2, §3

HCC1428 = details: HCC1428, Luminal, 72 h
Procedure: as §1, §2, §3

ZR7530 = details: ZR7530, Luminal, 72 h
Procedure: as §1, §2, §3

AU565 = details: AU565, Luminal, 72 h
Procedure: as §1, §2, §3

SKBR3 = details: SKBR3, Luminal, 72 h
Procedure: as §1, §2, §3

HCC1806 = details: HCC1806, Basal A, 72 h
Procedure: as §1, §2, §3

MCF10A = details: N, Basal B, 72 h
Procedure: as §1, §2, §3

MDAMB175VII = details: Luminal, 72 h
Procedure: as §1, §2, §3

MDAMB453 = details: MDAMB453, Luminal, 72 h
Procedure: as §1, §2, §3

HCC3153 = details: HCC3153, Basal A, 72 h
Procedure: as §1, §2, §3

HCC2185 = details: HCC2185, Luminal, 72 h
Procedure: as §1, §2, §3

SUM52PE = details: Luminal, 72 h
Procedure: as §1, §2, §3

ZR75B = details: Luminal, 72 h
Procedure: as §1, §2, §3

MCF12A = details: N, Basal B, 72 h
Procedure: as §1, §2, §3

BT483 = details: BT483, Luminal, 72 h
Procedure: as §1, §2, §3

HCC38 = details: HCC38, Basal B, 72 h
Procedure: as §1, §2, §3

MDAMB157 = details: MDAMB157, Basal B, 72 h
Procedure: as §1, §2, §3

HCC1500 = details: HCC1500, Basal B, 72 h
Procedure: as §1, §2, §3

MDAMB415 = details: MDAMB415, Luminal, 72 h
Procedure: as §1, §2, §3

HCC1954 = details: HCC1954, Basal A, 72 h
Procedure: as §1, §2, §3

SUM149PT = details: Basal B, 72 h
Procedure: as §1, §2, §3

Hs578T = details: Basal B, 72 h
Procedure: as §1, §2, §3

CCNCCCNC/C=C\CNCCCNCC [CGC-11047]
GI50 (MDAMB436; Homo sapiens, MDA-MB-436): 1 mM | TGI (MDAMB436): 3 mM | GI50 (T47D; Homo sapiens): 400 nM | TGI (T47D): 200 µM | TGI (HCC1143): 320 µM | GI50 (HCC1143; Homo sapiens): 2000 nM | TGI (HCC1428): 300 µM | GI50 (HCC1428; Homo sapiens): 1000 nM | GI50 (ZR7530; Homo sapiens, ZR-75-30): 800 nM | TGI (ZR7530): 1 mM | TGI (AU565): >30 µM | GI50 (AU565; Homo sapiens): 40 µM | GI50 (SKBR3; Homo sapiens, SK-BR-3): 5 mM | TGI (SKBR3): >5 mM | TGI (HCC1806): 330 µM | GI50 (HCC1806; Homo sapiens): 600 nM | GI50 (MCF10A; Homo sapiens, MCF-10A): 200 µM | TGI (MCF10A): 3.3 mM | GI50 (MDAMB175VII; Homo sapiens, MDA-MB-175-VII): 1 mM | TGI (MDAMB175VII): 2 mM | GI50 (MDAMB453; Homo sapiens, MDA-MB-453): 500 µM | TGI (MDAMB453): >500 µM | TGI (HCC3153): 8 µM | GI50 (HCC3153; Homo sapiens): 1300 nM | TGI (HCC2185): 500 µM | GI50 (HCC2185; Homo sapiens): 90 µM | GI50 (SUM52PE; Homo sapiens): 10 µM | TGI (SUM52PE): 300 µM | GI50 (ZR75B; Homo sapiens, ZR-75B): 200 µM | TGI (ZR75B): 2 mM | GI50 (MCF12A; Homo sapiens, MCF-12A): 100 µM | TGI (MCF12A): >100 µM | TGI (BT483): 1.3 mM | GI50 (BT483; Homo sapiens, BT-483): 900 µM | TGI (HCC38): 300 µM | GI50 (HCC38; Homo sapiens): 40 µM | GI50 (MDAMB157; Homo sapiens, MDA-MB-157): 200 µM | TGI (MDAMB157): 1 mM | TGI (HCC1500): 600 µM | GI50 (HCC1500; Homo sapiens): 20 µM | GI50 (MDAMB415; Homo sapiens, MDA-MB-415): 20 µM | TGI (MDAMB415): 100 µM | TGI (HCC1954): 8 µM | GI50 (HCC1954; Homo sapiens): 1000 nM | TGI (SUM149PT): 800 µM | GI50 (SUM149PT; Homo sapiens): 2000 nM | TGI (Hs578T): 500 µM | GI50 (Hs578T; Homo sapiens, Hs-578T): 400 nM

— US20110183336A1, “Method to Predict Responsiveness of Breast Cancer to Polyamine-Type Chemotherapy” (THE REGENTS OF THE UNIVERSITY OF CALIFORNIA, priority 2007, published 2011)
